Test results: patent US9655965B2, “Radiosensitizer compounds for use in combination with radiation” (priority 2013, dated 2017)
Entries after “also recorded” stand apart in the source; their conditions may differ.

Tests used:
[1] = system: human cervical cancer (ME-180) xenograft; test: Xenograft mouse tumor model of human cervical cancer (ME-180) in female SCID mice; format: in vivo
Description: The four groups in the experiment were: (1) control article (5% EtOH/medium); (2) 15 Gy X-ray irradiation; (3) Compound B at 7 mg/kg in 5% EtOH/medium and (4) Compound B at 7 mg/kg in 5% EtOH/medium plus 15 Gy X-ray irradiation, as shown in Table 2.
ME-180 (human cervical cancer) cells were cultured in the ATCC-formulated McCoy's 5 A Medium supplemented with 10% FBS. The cells in a flask were maintained at 37° C. in a humidified atmosphere containing 5% CO2. The cells were rinsed with PBS, trypsined for detachment from the bottom of the flask, mixed with fresh growth medium, and centrifuged to remove the supernatant. The cells were re-suspend with fresh medium to appropriate concentration for inoculation. Injection volume was 50 μl (1×10^6 cells) per animal.
ME-180 tumour cells were implanted subcutaneously into female SCID mice (age 6-8 weeks) in a volume of 50 μL into the left gastrocneumius muscle using a 27-gauge needle. This was established as a subcutaneous (SC) xenograft mouse model of human cervical cancer.
Mice were individually weighed and injected intraperitoneally according to body weight for an injection concentration as outlined in the study group table above. The injection volume was based on 200 μL per 20 g mouse. The skin surface was wiped down with 70% isopropyl alcohol to clean the injection site. Radiation was given using X-rad 225 targeted irradiator to the tumors.
Tumor size was measured as a function of time to assess tumor growth delay associated with treatment using slide caliper and […]. Animals were also weighed at the time of tumour measurement. Tumours in mice were allowed to grow to a maximum of 1000 mm^3 before termination.

[2] = system: various human cancer cells; test: In vitro radiosensitizing effects in various human cancer cells (FIG. 14-21); format: cell-based; conditions: 12 hr treatment, then various doses of 225 keV X-ray
Description: Dibromo-diamino-benzene (Dibromo-phenylenediamine, Compound B) was obtained from TCI—America. Diiodo-diaminobenzene (Compound C) were synthesized, purified and crystallized in our laboratory, and the structures and purity were examined by NMR and mass spectrometry. MEM and fetal bovine serum (FBS), penicillin G and streptomycin were obtained from Hyclone Laboratories (UT, USA). Stock solution of cisplatin was freshly prepared in ultrapure water or saline, and stock solutions of Compounds A, B, C, D were prepared in pure ethanol, where the final concentration of ethanol was ≦1% when treated to cells.
A human skin diploid fibroblast (GM05757 cell line) was obtained from the Coriell Cell Repository directly, while the human cervical cancer cell line (HeLa, ATCC#: CCL-2; or ME-180), human ovarian cancer cell line (NIH:OVCAR-3, ATCC#: HTB-161) and human lung cancer cell line (A549, ATCC#: CCL-185™), together with RPMI 1640, F-12K, McCoy's 5 A and L-15 culture media, were obtained from the American Type Culture Collection (ATCC) directly. Fetal bovine serum (FBS) was obtained from Hyclone Laboratories (UT, USA). The GM05757 normal cells and HeLa cells were cultivated with MEM (Hyclone) supplemented with 10% FBS, 100 units/mL penicillin G and 100 μg/mL streptomycin (Hyclone). The complete growth media for ME-180, NIH:OVCAR-3, A549 and MDA-MB-231 cells were the ATCC-formulated McCoy's 5 A Medium supplemented with 10% FBS, RPMI 1640 medium with 20%, F-12K medium with 10% FBS, and L-15 Medium (Leibovitz) with 10% FBS, respectively. The cells were maintained at 37° C. in a humidified atmosphere containing 5% CO2.
The radiosensitizing effects of RSCs on cell viability were determined by the 3-[4,5-dimethylthiazol-2-yl]-2,5-diphenyl tetrazoliumbromide (MTT) assay. Cells were cultured in 96-well plates (5×10^3 cells/well) for 24 h. The culture medium was replaced by fresh culture medium and incubated for 12 h with varying drug concentrations. The cells were then irradiated by 225 kV X-ray (PRECISION X-RAD IR 225) at a dose rate of 2 Gy/min with various X-ray doses. After irradiation, the cells were incubated for 6 days. The MTT assay of cell viability was then conducted. Briefly, 100 μl new medium without phenol red containing 1.2 mM MTT (sigma) (i.e., adding 10 μl 12 mM MTT stock solution in PBS) were added to each well and incubated for 4 h. The medium was then removed, and the formazan crystals solubilized by 100 μL/well DMSO (or alternatively by 100 μl/well SDS and incubated for another 4 h). The surviving fraction was determined by measuring the absorbance at 540 nm (570 nm for SDS solubilization) using a Multiskan Spectrum UV/Vis microplate reader (Thermo Scientific), which is directly proportional to the number of viable cells.

[3] = system: plasmid DNA [pGEM 3Zf(−)]; test: Agarose gel electrophoresis of ionizing-radiation-induced damage to plasmid DNA; format: biochemical, Escherichia Coli JM 109; conditions: 200 μM compound; two-UV-photon ionizing radiation of water; versus pure water
Description: Ultrapure water for life science with a resistivity of >18.2 MΩ/cm and TOC<1 ppm obtained freshly from a Barnstead Nanopure water system was used. Dibromo-diamino-benzene (Dibromo-phenylenediamine, Compound B) was obtained from TCI-America, while other chemicals and buffer compositions were obtained from Sigma-Aldrich. Plasmid DNA [pGEM 3Zf(−), […]] was extracted from Escherichia Coli JM 109 and purified using QIAprep Kit (Qiagen).
The pump beam at 322 nm, identical to that for fs-TRLS measurements, was used to produce radicals via two-photon excitation of water in DNA solutions. The laser beam was focused into a quartz cell containing 3.0 μg of DNA in 200 μL of buffer solutions. The solutions were stirred during irradiation to produce uniform DNA damage throughout the samples. Aliquots equivalent to 96 ng DNA were removed from the sample cell in various irradiation times for gel electrophoresis. All aliquots were analyzed with a standard agarose gel electrophoresis method, namely, on 1% neutral TAE agarose gel in TAE running buffer. The gel was prestained with 0.5 μg/ml ethidium bromide. […] They were quantified with an AlphaEase FC software.

Nc1cc(Br)c(Br)cc1N [Compound B, 4,5-dibromo-1,2-phenylenediamine]
suppression of tumor growth ([1]; 7 mg/kg IP 1 hr prior to 15 Gy 225 keV x-ray, versus radiation or compound only): significantly enhanced the suppression of tumor growth
tumor growth delay ([1]; 7 mg/kg plus 15 Gy x-ray, single doses): very significant tumor growth delay in vivo till 21 days
shrinkage of the tumor ([1]; 7 mg/kg plus 15 Gy x-ray, tumor volumes and MRI, Day 21): significant shrinkage of the tumor in mice; also recorded: most significant shrinkage of the tumor in mice
killing of cancer cells in combination with radiation [2]: enhanced the killing of cancer cells in a radiation dose dependent manner and in synergy with radiation; also recorded: enhances the effectiveness of ionizing radiation to kill tumor cells
radiation-induced DNA double-strand breaks (DSBs) [3]: significantly enhanced; also recorded: significant enhancement of DSBs
